In EP4603105A1, “PHARMACEUTICAL COMPOSITION CONTAINING CYCLIC COMPOUND HAVING SELECTIVE KRAS INHIBITORY EFFECT AGAINST HRAS AND NRAS” (CHUGAI SEIYAKU KABUSHIKI KAISHA, priority 2022, dated 2024):
Where a SMILES comes first, the peptide text is derived from it. Bridges are numbered along the chain shown (N, C = ends). [ ]: non-standard residue; d: D form. The star is where a group is joined. hPhe(3-Cl-4-CF3) = N[C@@H](CCc1ccc(C(F)(F)F)c(Cl)c1)C(=O)O; NPrPhe(4-CF3) = CCCN[C@@H](Cc1ccc(C(F)(F)F)cc1)C(=O)O; NMePhe(4-Me) = CN[C@@H](Cc1ccc(C)cc1)C(=O)O; NMeGly(cPent) = CN[C@H](C(=O)O)C1CCCC1; NMeD = CN[C@@H](CC(=O)O)C(=O)O; NMeL = CN[C@@H](CC(C)C)C(=O)O; Morpholide = C1CN(*)CCO1; NMeA = CN[C@@H](C)C(=O)O; NMeAib = CNC(C)(C)C(=O)O; Nle = CCCC[C@H](N)C(=O)O; Piperidide = C1CCN(*)CC1; Ac5c = NC1(C(=O)O)CCCC1; Aze = O=C(O)[C@@H]1CCN1; Ac4c = NC1(C(=O)O)CCC1; Sar = CNCC(=O)O

How the values were obtained:
[1] = target: GDP-bound NRAS wild-type protein (Homo sapiens, UniProt P01111); experiment: Binding to NRAS by surface plasmon resonance (SPR), KD and KD ratio to KRAS
Outline: (§1)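 SPR, 30°C: Avi-biotin RAS·GDP captured via Biotin CAPture (~100–300 RU); running buffer HBS pH 7.4, 1 mM DTT, 10 mM MgCl2, 0.01% Tween 20, 10 µM GDP, 4% DMSO. Single-cycle kinetics, 100 µL/min, 75 s injections; 1:1 model → KD.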

HRAS wild-type protein = HRAS wild-type protein (Homo sapiens, UniProt P01112); experiment: Binding to HRAS by surface plasmon resonance (SPR), KD and KD ratio to KRAS
Outline: as §1

[2] = tested on: human lung cancer strain NCI-H441; format: cell-based
Outline: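 Proliferation was scored by […] measured after the reagent was added to cultures kept at 37°C in 5% carbon dioxide.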

[3] = ratio of KD for GDP-bound NRAS wild-type protein to KD for KRAS
[4] = ratio of KD for HRAS wild-type protein to KD for KRAS
[5] = ratio of the KD value with respect to GDP-bound NRAS wild-type protein to the KD value with respect to KRAS
[6] = ratio of the KD value with respect to HRAS wild-type protein to the KD value with respect to KRAS

Chain of HRAS wild-type protein (P01112 whole entry): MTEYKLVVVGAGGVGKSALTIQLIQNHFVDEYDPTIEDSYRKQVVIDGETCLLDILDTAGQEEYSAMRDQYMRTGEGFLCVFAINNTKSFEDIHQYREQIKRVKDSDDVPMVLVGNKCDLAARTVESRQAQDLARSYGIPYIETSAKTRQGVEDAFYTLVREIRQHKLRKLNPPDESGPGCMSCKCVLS
Chain of GDP-bound NRAS wild-type protein (P01111 whole entry): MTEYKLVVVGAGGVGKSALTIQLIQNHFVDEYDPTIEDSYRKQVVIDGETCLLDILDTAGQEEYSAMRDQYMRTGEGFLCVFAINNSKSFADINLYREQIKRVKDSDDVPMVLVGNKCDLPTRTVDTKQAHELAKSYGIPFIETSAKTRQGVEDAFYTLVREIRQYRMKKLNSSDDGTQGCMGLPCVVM

Row | IC50 [2] | Structure (SMILES) | NRAS /KRAS [1, 3] | HRAS /KRAS (HRAS wild-type protein; [4]) | NRAS /KRAS ([1]; ratio of KD value for GDP-bound NRAS wild-type protein to KD value for KRAS (SPR)) | HRAS /KRAS (HRAS wild-type protein; ratio of KD value for HRAS wild-type protein to KD value for KRAS (SPR)) | NRAS /KRAS [1, 5] | HRAS /KRAS (HRAS wild-type protein; [6])
1 | 14.1 nM | CCCOC[C@H]1C(=O)N[C@@H]([C@@H](C)CC)C(=O)N(C)CC(=O)N(C)[C@H]2C/C=C\CCN(C2=O)[C@@H](Cc2ccc(C(F)(F)F)cc2)C(=O)N(C)CC(=O)N[C@@H](CCc2ccc(C(F)(F)F)c(Cl)c2)C(=O)N2C[C@H](OCC)C[C@H]2C(=O)NC2(CCC2)C(=O)N(C)[C@@H](C2CCCC2)C(=O)N(C)[C@H](C(=O)N(C)CCC)CC(=O)N1C [PP2831] | A (a compound having 10 or more and less than 20 is denoted as A) | A (a compound having 10 or more and less than 20 is denoted as A) | – | – | – | –
2 | 567 nM | CCO[C@@H]1C[C@H]2C(=O)NC3(CCC3)C(=O)N(C)[C@@H](C(CC)CC)C(=O)N(C)[C@H](C)CC(=O)N(C)[C@@H](CC3CCCC3)C(=O)N[C@@H]([C@@H](C)CC)C(=O)N(C)CC(=O)N(C)[C@H]3C/C=C\CCN(C3=O)[C@@H](Cc3ccc(F)cc3C)C(=O)N(C)CC(=O)N[C@@H](CCc3cc(F)c(C(F)(F)F)c(F)c3)C(=O)N2C1 [PP1522] | – | – | A (a compound having 10 or more and less than 20 is denoted as A) | A (a compound having 10 or more and less than 20 is denoted as A) | – | –
3 | 4.4 nM | CCCN1C(=O)[C@@H]2CCN2C(=O)[C@H](C)N(C)C(=O)[C@H]([C@@H](C)CC)NC(=O)[C@H](CC(C)C)N(C)C(=O)C[C@@H](C(=O)N(C)C)NC(=O)[C@H](C2CCCC2)N(C)C(=O)C2(CCCC2)NC(=O)[C@@H]2CCCN2C(=O)[C@H](CCc2ccc(C(F)(F)F)c(Cl)c2)NC(=O)CN(C)C(=O)[C@@H]1Cc1ccc(C(F)(F)F)cc1 [PP0379] ([NMeL]I[NMeA][Aze][NPrPhe(4-CF3)][Sar][hPhe(3-Cl-4-CF3)]P[Ac5c][NMeGly(cPent)]D-NMe2; lactam N-11) | C (A compound having a KD ratio of 0.1 or more and less than 3 is denoted as C) | B (a compound having 3 or more and less than 10 is denoted as B) | – | – | – | –
4 | 18.7 nM | CCO[C@@H]1C[C@H]2C(=O)NC3(CCCC3)C(=O)N(C)[C@@H](C3CCCC3)C(=O)N(C)[C@H](C(=O)N(C)C)CC(=O)N(C)[C@@H](C)C(=O)N[C@@H]([C@@H](C)CC)C(=O)N(C)CC(=O)N(C)[C@H]3CCCCCN(C3=O)[C@@H](Cc3ccc(C(F)(F)F)cc3)C(=O)N(C)CC(=O)N[C@@H](CCc3cc(F)c(C(F)(F)F)c(F)c3)C(=O)N2C1 [PP0475] | – | – | – | – | B (a compound having 3 or more and less than 10 is denoted as B) | B (a compound having 3 or more and less than 10 is denoted as B)
5 | 13.7 nM | CC[C@H](C)[C@@H]1NC(=O)[C@@H]2CCC/C=C/c3ccc(cc3)C[C@@H](C(=O)N(C)CC(=O)N[C@@H](CCc3ccc(Cl)c(Cl)c3)C(=O)N3C[C@H](OC(C)C)C[C@H]3C(=O)NC3(CC(C)(C)C3)C(=O)N(C)[C@@H](C3CCCC3)C(=O)N(C)[C@H](C(=O)N3CCCC3)CC(=O)N2C)N2CC/C=C\C[C@@H](C2=O)N(C)C(=O)CN(C)C1=O [PP2596] | A (a compound having 10 or more and less than 20 is denoted as A) | A (a compound having 10 or more and less than 20 is denoted as A) | – | – | – | –
6 | 99.4 nM | CCCN1C(=O)CN(C)C(=O)CN(C)C(=O)[C@H]([C@@H](C)CC)NC(=O)[C@H](CC(C)C)N(C)C(=O)C[C@@H](C(=O)N(C)C)NC(=O)[C@H](C2CCCC2)N(C)C(=O)C2(CCC2)NC(=O)[C@@H]2CCCN2C(=O)[C@H](CCc2ccc(C(F)(F)F)c(Cl)c2)NC(=O)CN(C)C(=O)[C@@H]1Cc1ccc(C(F)(F)F)cc1 [PP0356] ([NMeL]I[Sar][Sar][NPrPhe(4-CF3)][Sar][hPhe(3-Cl-4-CF3)]P[Ac4c][NMeGly(cPent)]D-NMe2; lactam N-11) | B (a compound having 3 or more and less than 10 is denoted as B) | B (a compound having 3 or more and less than 10 is denoted as B) | – | – | – | –
7 | 23.9 nM | CCCN1C(=O)CN(C)C(=O)CN(C)C(=O)[C@H]([C@@H](C)CC)NC(=O)[C@H](CC(C)C)N(C)C(=O)C[C@@H](C(=O)N2CCOCC2)NC(=O)[C@H](C2CCCC2)N(C)C(=O)C2(CCCC2)NC(=O)[C@@H]2CCCN2C(=O)[C@H](CCc2ccc(C(F)(F)F)c(Cl)c2)NC(=O)CN(C)C(=O)[C@@H]1Cc1ccc(C(F)(F)F)cc1 [PP0146] ([NMeL]I[Sar][Sar][NPrPhe(4-CF3)][Sar][hPhe(3-Cl-4-CF3)]P[Ac5c][NMeGly(cPent)]D-Morpholide; lactam N-11) | B (a compound having 3 or more and less than 10 is denoted as B) | B (a compound having 3 or more and less than 10 is denoted as B) | – | – | – | –
8 | 40.4 nM | CCO[C@@H]1C[C@H]2C(=O)NC3(CCC3)C(=O)N(C)[C@@H]([C@@H](C)CC)C(=O)N(C)[C@H](C(=O)N(C)C)CC(=O)N(C)[C@@H](CC)C(=O)N[C@@H]([C@@H](C)CC)C(=O)N(C)CC(=O)N(C)[C@H]3C/C=C\CCN(C3=O)[C@@H](Cc3ccc(C(F)(F)F)cc3)C(=O)N(C)CC(=O)N[C@@H](CCc3cc(F)c(C(F)(F)F)c(F)c3)C(=O)N2C1 [PP1087] | A (a compound having 10 or more and less than 20 is denoted as A) | A (a compound having 10 or more and less than 20 is denoted as A) | – | – | – | –
9 | 136 nM | CCO[C@@H]1C[C@H]2C(=O)NC3(CCC3)C(=O)N(C)[C@@H](C3CCCC3)C(=O)N(CCC3CCCC3)[C@H](C(=O)N3CCOCC3)CC(=O)N(C)[C@@H](CC(C)C)C(=O)N[C@@H]([C@@H](C)CC)C(=O)N(C)CC(=O)N(C)[C@H]3CCCCN(C3=O)[C@@H](Cc3ccc(C(F)(F)F)cc3)C(=O)N(C)CC(=O)N[C@@H](CCc3cc(F)c(C(F)(F)F)c(F)c3)C(=O)N2C1 [PP0651] | – | – | – | – | B (a compound having 3 or more and less than 10 is denoted as B) | B (a compound having 3 or more and less than 10 is denoted as B)
10 | 7.2 nM | CCO[C@@H]1C[C@H]2C(=O)NC3(CCC3)C(=O)N(C)[C@@H](C3CCCC3)C(=O)N(C)[C@H](C(=O)N(C)C)CC(=O)N(C)[C@@H](CC3CCCC3)C(=O)N[C@@H]([C@@H](C)CC)C(=O)N(C)CC(=O)N(C)[C@H]3C/C=C\CCN(C3=O)[C@@H](Cc3ccc(C(F)(F)F)cc3)C(=O)N(C)CC(=O)N[C@@H](CCc3ccc(C(F)(F)F)c(Cl)c3)C(=O)N2C1 [PP2842] | A (a compound having 10 or more and less than 20 is denoted as A) | B (a compound having 3 or more and less than 10 is denoted as B) | – | – | – | –

Row | Structure (SMILES) | IC50 [2] | NRAS /KRAS [1, 3] | HRAS /KRAS (HRAS wild-type protein; [4]) | NRAS /KRAS ([1]; ratio of KD value for GDP-bound NRAS wild-type protein to KD value for KRAS (SPR)) | HRAS /KRAS (HRAS wild-type protein; ratio of KD value for HRAS wild-type protein to KD value for KRAS (SPR)) | NRAS /KRAS [1, 5] | HRAS /KRAS (HRAS wild-type protein; [6])
11 | CCCC[C@@H]1NC(=O)[C@H](CCc2ccc(C(F)(F)F)c(Cl)c2)NC(=O)CN(C)C(=O)[C@H](Cc2ccc(C)cc2)N(C)C(=O)CN(C)C(=O)CN(C)C(=O)[C@H]([C@@H](C)CC)NC(=O)[C@H](CC(C)C)N(C)C(=O)C[C@@H](C(=O)N2CCCCC2)N(C)C(=O)[C@H](CC(C)C)NC(=O)C(C)(C)N(C)C1=O [PP0049] ([NMeL]I[Sar][Sar][NMePhe(4-Me)][Sar][hPhe(3-Cl-4-CF3)][Nle][NMeAib]L[NMeD]-Piperidide; lactam N-11) | 201 nM | C (A compound having a KD ratio of 0.1 or more and less than 3 is denoted as C) | C (A compound having a KD ratio of 0.1 or more and less than 3 is denoted as C) | – | – | – | –
